#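 All cell lines were grown in 96-well plates and treated with compound for 48 hours. GI50: concentration for 50% inhibition of growth. TGI marks complete inhibition of growth.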
# Assays:
# Assay in all cases: NCI-60 cell line screen, 48 h
# A549 NSCLC = test system: A549 NSCLC
# HT29 colon = test system: HT29 colon
# KM12 colon = test system: KM12 colon
# M14 melanoma = test system: M14 melanoma
# NCI/ADR-RES ovarian = test system: NCI/ADR-RES ovarian
# OVCAR-3 ovarian = test system: OVCAR-3 ovarian
# OVCAR-5 ovarian = test system: OVCAR-5 ovarian
# SK-MEL-2 melanoma = test system: SK-MEL-2 melanoma
# SW-620 colon = test system: SW-620 colon
# T-47D breast = test system: T-47D breast
Compound,TGI (A549 NSCLC),TGI (HT29 colon),TGI (KM12 colon),TGI (M14 melanoma),TGI (NCI/ADR-RES ovarian),TGI (OVCAR-3 ovarian),TGI (OVCAR-5 ovarian),TGI (SK-MEL-2 melanoma),TGI (SW-620 colon),TGI (T-47D breast),GI50 (A549 NSCLC),GI50 (HT29 colon),GI50 (KM12 colon),GI50 (NCI/ADR-RES ovarian),GI50 (OVCAR-3 ovarian),GI50 (OVCAR-5 ovarian),GI50 (SK-MEL-2 melanoma),GI50 (SW-620 colon),GI50 (T-47D breast),GI50 (M14 melanoma)
COc1cc(OC)c(/C=C\c2ccnc3ccccc23)c(OC)c1,18.6 µM,11.8 µM,16.5 µM,15.2 µM,10.2 µM,12.8 µM,19.3 µM,19.4 µM,20.8 µM,15.6 µM,,,,,,,,,,
CC(=O)c1ccc(OCC(O)CO)cc1 (stereo not given),> 100 µM,> 100 µM,> 100 µM,> 100 µM,,> 100 µM,> 100 µM,,29.4 µM,,,,,,,,,,,
CCN1C(=O)N(CC)C2Nn3c(s/c(=C\c4ccccc4Br)c3=O)=NC21 (stereo not given),> 100 µM,5.73 µM,6.13 µM,,43.7 µM,5.02 µM,> 100 µM,25.6 µM,> 100 µM,> 100 µM,1.23 µM,0.558 µM,0.501 µM,1.74 µM,1.05 µM,2.01 µM,3.55 µM,1.27 µM,13.2 µM,
CC(=O)Nc1cc(N(CCOS(C)(=O)=O)CCOS(C)(=O)=O)ccc1N=O,> 100 µM,> 100 µM,> 100 µM,> 100 µM,,> 100 µM,> 100 µM,> 100 µM,> 100 µM,,,,,,,,,,,
Cc1ccc(-c2cc3c(SCC(=O)Nc4cc(C(F)(F)F)ccc4Cl)nccn3n2)cc1,,,> 100 µM,> 100 µM,> 100 µM,> 100 µM,> 100 µM,> 100 µM,> 100 µM,> 100 µM,,,> 100 µM,> 100 µM,> 100 µM,> 100 µM,> 100 µM,> 100 µM,23.6 µM,> 100 µM
Cc1ccc2ncnc(N(CC(C)C)CC(C)C)c2c1,25.3 µM,,40 µM,30.8 µM,24.6 µM,31.5 µM,43.7 µM,> 100 µM,,89.3 µM,9.43 µM,,16.4 µM,10.4 µM,16.3 µM,20.1 µM,61.1 µM,,20.4 µM,14.8 µM
COC(=O)C(CC(C)C)NC(=O)NC12CC3CC(CC(F)(C3)C1)C2 (stereo not given),> 100 µM,> 100 µM,> 100 µM,> 100 µM,,> 100 µM,> 100 µM,> 100 µM,> 100 µM,,,,,,,,,,,
CCOC(=O)CSC(=O)NCCCl,> 100 µM,> 100 µM,> 100 µM,> 100 µM,,> 100 µM,> 100 µM,> 100 µM,> 100 µM,,,,,,,,,,,
O=C1c2nsnc2C(=O)c2c(F)c(F)c(F)c(F)c21,4.85 µM,0.715 µM,3.29 µM,0.629 µM,4.33 µM,,3.47 µM,4.81 µM,0.348 µM,2.37 µM,2.15 µM,0.266 µM,1.4 µM,1.63 µM,,1.93 µM,2.17 µM,0.172 µM,0.473 µM,0.249 µM
COC(=O)/C=C(\C(=O)OC)c1c2c3c(cc(OC)c(OC)c3c3ccccc13)CCN2C,> 100 µM,> 100 µM,> 100 µM,> 100 µM,,> 100 µM,> 100 µM,> 100 µM,> 100 µM,,,,,,,,,,,
COC(=O)/C(=N\Nc1nc(=S)[nH]n1N)C(C#N)c1ccccc1 (stereo not given),> 100 µM,> 100 µM,> 100 µM,> 100 µM,,> 100 µM,> 100 µM,> 100 µM,> 100 µM,,,,,,,,,,,
CCCCCCCCCCCCCC(=O)OCC1OC(n2cc(F)c(=O)[nH]c2=O)C(NC(=O)OCc2ccccc2)C(OC(=O)CCCCCCCCCCCCC)C1O (stereo not given),> 100 µM,> 100 µM,> 100 µM,> 100 µM,,> 100 µM,> 100 µM,> 100 µM,> 100 µM,,,,,,,,,,,
CC(/C(=N\Nc1ccccc1)c1ccc(O)cc1)C1C(=O)Oc2ccccc21 (stereo not given),> 100 µM,> 100 µM,> 100 µM,> 100 µM,,> 100 µM,,> 100 µM,> 100 µM,,,,,,,,,,,
COC(=O)C(C(=O)C(=O)Nc1nc(=S)[nH][nH]1)c1csc(-n2nc(-c3ccccc3)cc2-c2ccccc2)n1 (stereo not given),> 100 µM,> 100 µM,> 100 µM,> 100 µM,,> 100 µM,> 100 µM,,> 100 µM,,,,,,,,,,,
CCOC(=O)C1C2CCC(C2)C1(CCl)C(=O)OCC (stereo not given),> 100 µM,> 100 µM,,> 100 µM,,> 100 µM,> 100 µM,,> 100 µM,,,,,,,,,,,
O=C1c2ccccc2C(=O)N1CCN(CCN1C(=O)c2ccccc2C1=O)Cn1cccn1,> 100 µM,,> 100 µM,> 100 µM,,> 100 µM,,> 100 µM,> 100 µM,,,,,,,,,,,
CC(=O)OC1CCCn2c1nc1c2C(=O)C(C)=C(N2CC2)C1=O (stereo not given),2.77 µM,0.645 µM,1.24 µM,0.337 µM,,1.39 µM,1.32 µM,0.693 µM,0.927 µM,,,,,,,,,,,
COc1ccc2c(c1)[n+](=O)c(C(=O)c1ccco1)c(C(F)(F)F)n2[O-],16.6 µM,> 100 µM,32.6 µM,6.72 µM,6.57 µM,11.5 µM,22.3 µM,> 100 µM,34.5 µM,,2.56 µM,4.59 µM,4.48 µM,2 µM,1.54 µM,3.51 µM,24 µM,3.53 µM,,2 µM
CNCc1cc(OC)ccc1-c1ccc(OC)c(OC)c1OC,> 100 µM,> 100 µM,> 100 µM,> 100 µM,,> 100 µM,> 100 µM,> 100 µM,> 100 µM,,,,,,,,,,,
COc1ccc(C(=O)c2cc(OC)c(OC)c(OC)c2)cc1/C=C/C(=O)c1ccc(OC)c(OC)c1,,,> 100 µM,> 100 µM,> 100 µM,,> 100 µM,,> 100 µM,> 100 µM,,,1.42 µM,0.466 µM,,3.67 µM,,0.321 µM,2.76 µM,2.79 µM

# — PubChem BioAssay (NCI)
